{"source": "ChEMBL document CHEMBL3826930", "about": "“Antitumor activities of biscoumarin and dihydropyran derivatives” (Bioorg Med Chem Lett, 2016)", "key": {"Mus musculus [1]": {"tested_on": "Mus musculus", "experiment": "Acute toxicity in Kunming mouse assessed as sleep pattern abnormality at 500 mg/kg, administered as single dose after 14 days", "assay_type": "organism-based", "conditions": "in vivo, 336 h"}, "Mus musculus [2]": {"tested_on": "Mus musculus", "experiment": "Acute toxicity in Kunming mouse assessed as structural abnormality in liver at 500 mg/kg, administered as single dose after 14 days by hematoxylin and eosin staining based histological analysis", "assay_type": "organism-based", "conditions": "in vivo, 336 h"}, "Mus musculus [3]": {"tested_on": "Mus musculus", "experiment": "Acute toxicity in Kunming mouse assessed as structural abnormality in kidney at 500 mg/kg, administered as single dose after 14 days by hematoxylin and eosin staining based histological analysis", "assay_type": "organism-based", "conditions": "in vivo, 336 h"}, "[4]": {"experiment": "Antiproliferative activity against human HuTu 80 cells after 48 hrs by MTT assay", "assay_type": "functional, cell-based", "conditions": "HuTu80, 48 h"}, "4T1 [5]": {"tested_on": "4T1", "experiment": "Antiproliferative activity against mouse 4T1 cells after 48 hrs by MTT assay", "assay_type": "functional, cell-based", "conditions": "4T1, 48 h"}, "[6]": {"experiment": "Antiproliferative activity against human PANC1 cells after 48 hrs by MTT assay", "assay_type": "functional, cell-based", "conditions": "PANC-1, 48 h"}, "[7]": {"experiment": "(§1) Cytotoxicity against HUVEC assessed as reduction in cell survival after 48 hrs by MTT assay", "assay_type": "cell-based, Homo sapiens", "conditions": "human, HUVEC cells"}, "HUVEC": {"tested_on": "HUVEC", "experiment": "as §1", "assay_type": "cell-based, Homo sapiens", "conditions": "Homo sapiens, HUVEC, 48 h"}, "[8]": {"experiment": "(§2) Cytotoxicity against HEK293 cells assessed as reduction in cell survival after 48 hrs by MTT assay", "assay_type": "cell-based, Homo sapiens", "conditions": "human, HEK293 cells"}, "HEK293 [9]": {"tested_on": "HEK293", "experiment": "as §2", "assay_type": "cell-based, Homo sapiens", "conditions": "Homo sapiens, HEK293, 48 h"}, "HuTu80 [10]": {"tested_on": "HuTu80", "experiment": "Selectivity index, ratio of IC50 for HUVEC to IC50 for human HuTu 80 cells"}, "4T1 [11]": {"tested_on": "4T1", "experiment": "Selectivity index, ratio of IC50 for HUVEC to IC50 for mouse 4T1 cells"}, "PANC-1": {"tested_on": "PANC-1", "experiment": "Selectivity index, ratio of IC50 for HUVEC to IC50 for human PANC1 cells"}, "HEK293 [12]": {"tested_on": "HEK293", "experiment": "Selectivity index, ratio of IC50 for HEK293 cells to IC50 for human HuTu 80 cells", "assay_type": "functional"}, "HEK293 [13]": {"tested_on": "HEK293", "experiment": "Selectivity index, ratio of IC50 for HEK293 cells to IC50 for mouse 4T1 cells", "assay_type": "functional"}, "HEK293 [14]": {"tested_on": "HEK293", "experiment": "Selectivity index, ratio of IC50 for HEK293 cells to IC50 for human PANC1 cells", "assay_type": "functional"}, "HuTu80 [15]": {"tested_on": "HuTu80", "experiment": "Induction of apoptosis in human HuTu 80 cells assessed as live cells at 3 ug/ml after 48 hrs by Annexin V/propidium iodide staining based flow cytometry (reference value: 92.5%)", "assay_type": "functional"}, "HuTu80 [16]": {"tested_on": "HuTu80", "experiment": "Induction of apoptosis in human HuTu 80 cells assessed as early apoptotic cells at 3 ug/ml after 48 hrs by Annexin V/propidium iodide staining based flow cytometry (reference value: 0.5%)", "assay_type": "functional"}, "HuTu80 [17]": {"tested_on": "HuTu80", "experiment": "Induction of apoptosis in human HuTu 80 cells assessed as late apoptotic cells at 3 ug/ml after 48 hrs by Annexin V/propidium iodide staining based flow cytometry (reference value: 1.6%)", "assay_type": "functional"}, "HuTu80 [18]": {"tested_on": "HuTu80", "experiment": "Induction of apoptosis in human HuTu 80 cells assessed as necrotic cells at 3 ug/ml after 48 hrs by Annexin V/propidium iodide staining based flow cytometry (reference value: 5.3%)", "assay_type": "functional"}, "[19]": {"experiment": "Cell cycle arrest in human HuTu 80 cells assessed as accumulation at subG1 phase at 3 ug/ml after 48 hrs by propidium iodide staining based flow cytometry (reference value: 2.27 to 2.3%)", "assay_type": "functional", "conditions": "HuTu80"}, "[20]": {"experiment": "Cell cycle arrest in human HuTu 80 cells assessed as accumulation at G1 phase at 3 ug/ml after 48 hrs by propidium iodide staining based flow cytometry (reference value: 43.3 to 43.32%)", "assay_type": "functional", "conditions": "HuTu80"}, "[21]": {"experiment": "Cell cycle arrest in human HuTu 80 cells assessed as accumulation at S phase at 3 ug/ml after 48 hrs by propidium iodide staining based flow cytometry (reference value: 15.79 to 15.8%)", "assay_type": "functional", "conditions": "HuTu80"}, "[22]": {"experiment": "Cell cycle arrest in human HuTu 80 cells assessed as accumulation at G2/M phase at 3 ug/ml after 48 hrs by propidium iodide staining based flow cytometry (reference value: 23.2%)", "assay_type": "functional", "conditions": "HuTu80"}, "Mus musculus [23]": {"tested_on": "Mus musculus", "experiment": "Acute toxicity in Kunming mouse assessed as survival at 500 mg/kg, administered as single dose measured on day 14 post dose", "assay_type": "organism-based", "conditions": "in vivo"}, "Mus musculus [24]": {"tested_on": "Mus musculus", "experiment": "Acute toxicity in Kunming mouse assessed as physical/abnormal changes in skin at 500 mg/kg, administered as single dose after 14 days", "assay_type": "organism-based", "conditions": "in vivo, 336 h"}, "Mus musculus [25]": {"tested_on": "Mus musculus", "experiment": "Acute toxicity in Kunming mouse assessed as physical/abnormal changes in fur at 500 mg/kg, administered as single dose after 14 days", "assay_type": "organism-based", "conditions": "in vivo, 336 h"}, "Mus musculus [26]": {"tested_on": "Mus musculus", "experiment": "Acute toxicity in Kunming mouse assessed as physical/abnormal changes in eyes at 500 mg/kg, administered as single dose after 14 days", "assay_type": "organism-based", "conditions": "in vivo, 336 h"}, "Mus musculus [27]": {"tested_on": "Mus musculus", "experiment": "Acute toxicity in Kunming mouse assessed as physical/abnormal changes in mucus membrane at 500 mg/kg, administered as single dose after 14 days", "assay_type": "organism-based", "conditions": "in vivo, 336 h"}, "Mus musculus [28]": {"tested_on": "Mus musculus", "experiment": "Acute toxicity in Kunming mouse assessed as tremor induction at 500 mg/kg, administered as single dose after 14 days", "assay_type": "organism-based", "conditions": "in vivo, 336 h"}, "Mus musculus [29]": {"tested_on": "Mus musculus", "experiment": "Acute toxicity in Kunming mouse assessed as induction of salivation at 500 mg/kg, administered as single dose after 14 days", "assay_type": "organism-based", "conditions": "in vivo, 336 h"}, "Mus musculus [30]": {"tested_on": "Mus musculus", "experiment": "Acute toxicity in Kunming mouse assessed as behavior pattern abnormality at 500 mg/kg, administered as single dose after 14 days", "assay_type": "organism-based", "conditions": "in vivo, 336 h"}}, "data": [{"compound": "O=c1oc2ccccc2c(O)c1C(c1ccc(F)c(F)c1)c1c(O)c2ccccc2oc1=O", "values": [{"measurement": "Activity", "setting": "Mus musculus [1]", "value": "Non-toxic"}, {"measurement": "Activity", "setting": "Mus musculus [2]", "value": "Non-toxic"}, {"measurement": "Activity", "setting": "Mus musculus [3]", "value": "Non-toxic"}, {"measurement": "IC50", "setting": "[4]", "value": 15, "unit": "µg/mL"}, {"measurement": "IC90", "setting": "[4]", "value": 28, "unit": "µg/mL"}, {"measurement": "IC50", "setting": "4T1 [5]", "value": 47.9, "unit": "µg/mL"}, {"measurement": "IC90", "setting": "4T1 [5]", "value": 98.4, "unit": "µg/mL"}, {"measurement": "IC50", "setting": "[6]", "value": 82.4, "unit": "µg/mL"}, {"measurement": "IC90", "setting": "[6]", "value": 155, "unit": "µg/mL"}, {"measurement": "IC90 at 48 h", "setting": "[7]", "value": 276, "unit": "µg/mL"}, {"measurement": "IC50", "setting": "HUVEC", "value": 112, "unit": "µg/mL"}, {"measurement": "IC90 at 48 h", "setting": "[8]", "value": 221, "unit": "µg/mL"}, {"measurement": "IC50", "setting": "HEK293 [9]", "value": 107, "unit": "µg/mL"}, {"measurement": "Ratio IC50", "setting": "HuTu80 [10]", "value": 7.5}, {"measurement": "Ratio IC50", "setting": "4T1 [11]", "value": 2.3}, {"measurement": "Ratio IC50", "setting": "PANC-1", "value": 1.36}, {"measurement": "Ratio IC50", "setting": "HEK293 [12]", "value": 7.1}, {"measurement": "Ratio IC50", "setting": "HEK293 [13]", "value": 2.2}, {"measurement": "Ratio IC50", "setting": "HEK293 [14]", "value": 1.3}, {"measurement": "Activity", "setting": "HuTu80 [15]", "value": 88, "unit": "%"}, {"measurement": "Activity", "setting": "HuTu80 [16]", "value": 1.2, "unit": "%"}, {"measurement": "Activity", "setting": "HuTu80 [17]", "value": 3.2, "unit": "%"}, {"measurement": "Activity", "setting": "HuTu80 [18]", "value": 7.5, "unit": "%"}, {"measurement": "Activity", "setting": "[19]", "value": 25.1, "unit": "%"}, {"measurement": "Activity", "setting": "[20]", "value": 26.1, "unit": "%"}, {"measurement": "Activity", "setting": "[21]", "value": 18.5, "unit": "%"}, {"measurement": "Activity", "setting": "[22]", "value": 15.3, "unit": "%"}, {"measurement": "Activity", "setting": "Mus musculus [23]", "value": "Non-toxic"}, {"measurement": "Activity", "setting": "Mus musculus [24]", "value": "Non-toxic"}, {"measurement": "Activity", "setting": "Mus musculus [25]", "value": "Non-toxic"}, {"measurement": "Activity", "setting": "Mus musculus [26]", "value": "Non-toxic"}, {"measurement": "Activity", "setting": "Mus musculus [27]", "value": "Non-toxic"}, {"measurement": "Activity", "setting": "Mus musculus [28]", "value": "Non-toxic"}, {"measurement": "Activity", "setting": "Mus musculus [29]", "value": "Non-toxic"}, {"measurement": "Activity", "setting": "Mus musculus [30]", "value": "Non-toxic"}]}]}
